This is an account of results in ChEMBL document CHEMBL3044606, “Binding of sodium houttuyfonate analogues to bovine serum albumin revealed by fluoresence quenching study” (Med Chem Res, 2010).

Structures are written as SMILES.

Holding throughout (assay type): ADME
What all share (conditions): cattle, isolated protein

Series [1] deals with T1, Albumin (Bos taurus, UniProt P02769). The experiment in a line: Binding affinity to Bos taurus (bovine) serum albumin assessed as decrease in fluorescence after 5 min by fluorimetric analysis.
Series [2] has as its target T1, Albumin. In words: Binding affinity to Bos taurus (bovine) serum albumin assessed as decrease in decrease in absorption at 50 uM after 5 min by UV-Vis spectrophotometric analysis. On the set-up: scale not given: the % may be the effect or the level left.
Series [3] deals with T1, Albumin. In words: Binding affinity to Bos taurus (bovine) serum albumin after 5 min at 25 degC by Stern-Volmer plot analysis.
In series [4] the target is T1, Albumin. The experiment in a line: Binding affinity to Bos taurus (bovine) serum albumin assessed as shift in emission wavelength at 25 to 200 uM after 5 min by fluorimetric analysis.
Series [5] concerns the target T1, Albumin. In words: Binding affinity to Bos taurus (bovine) serum albumin after 5 min at 37 degC by Stern-Volmer plot analysis.
Series [6] concerns the target T1, Albumin. In words: Binding affinity to Bos taurus (bovine) serum albumin assessed as decrease in fluorescence at 1:25 protein:compound ratio after 5 min by fluorimetric analysis.

T1 sequence (P02769 whole entry): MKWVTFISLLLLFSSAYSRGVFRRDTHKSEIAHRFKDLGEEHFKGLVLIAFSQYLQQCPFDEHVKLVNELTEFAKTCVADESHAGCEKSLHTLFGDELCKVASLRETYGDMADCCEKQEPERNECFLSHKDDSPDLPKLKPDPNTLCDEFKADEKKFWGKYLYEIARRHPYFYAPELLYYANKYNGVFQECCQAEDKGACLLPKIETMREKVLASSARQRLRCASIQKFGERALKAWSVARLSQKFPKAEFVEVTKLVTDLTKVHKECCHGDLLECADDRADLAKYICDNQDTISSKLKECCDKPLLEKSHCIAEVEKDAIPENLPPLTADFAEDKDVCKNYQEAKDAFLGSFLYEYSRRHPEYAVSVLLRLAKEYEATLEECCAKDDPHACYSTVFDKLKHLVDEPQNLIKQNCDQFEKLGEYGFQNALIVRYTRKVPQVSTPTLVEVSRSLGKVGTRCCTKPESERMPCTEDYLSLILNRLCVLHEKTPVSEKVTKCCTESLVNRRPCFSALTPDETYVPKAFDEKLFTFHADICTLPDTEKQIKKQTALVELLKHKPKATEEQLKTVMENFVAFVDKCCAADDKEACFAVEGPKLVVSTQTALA

Consider `CCCCCCCCCCCC(=O)CC(O)S(=O)(=O)[O-].[Na+]` (stereo not given) [DODECANOYL ACETAL SODIUM SULFITE], for which the Activity entry in series [1] was “Dose-dependent effect”; in series [2], 90%; in series [4] it was “Not Active”; in series [6] it was “Active”. Also, the K in series [3] was found to be 0.197 ×10⁶ /M. The KSV in series [3] is given as 147.9 ×10³ /M; in series [5], 72 ×10³ /M. Also, the Kq in series [3] turned out to be 14.79 ×10¹² /M/s; in series [5], 7.2 ×10¹² /M/s.
Regarding `CCCCCC(=O)CC(O)S(=O)(=O)[O-].[Na+]` (stereo not given) [HEXANOYL ACETAL SODIUM SULFITE], the Activity entry is on record as “Dose-dependent effect” in series [1], 50% in series [2], “Not Active” in series [4] and “Not Active” in series [6]. Besides, the K in series [3] is 6.7081 ×10⁶ /M. Besides, the KSV in series [3] worked out at 36.7 ×10³ /M; in series [5], 73.5 ×10³ /M. Also, the Kq in series [3] amounted to 3.67 ×10¹² /M/s; in series [5], 7.35 ×10¹² /M/s.
With `CCCCCCCC(=O)CC(O)S(=O)(=O)[O-].[Na+]` (stereo not given) [OCTANOYL ACETAL SODIUM SULFITE], the Activity result was “Dose-dependent effect” in series [1], 50% in series [2], “Not Active” in series [4] and “Active” in series [6]. This molecule also showed a K in series [3] of 691.83 ×10⁶ /M. In addition, the KSV is on record as 381.3 ×10³ /M in series [3] and 529.2 ×10³ /M in series [5]. Besides, the Kq turned out to be 38.13 ×10¹² /M/s in series [3] and 52.92 ×10¹² /M/s in series [5].
On to `CCCCCCCCCC(=O)CC(O)S(=O)(=O)[O-].[Na+]` (stereo not given) [SODIUM HOUTTUYFONATE], for which the Activity entry in series [1] is on record as “Dose-dependent effect”; in series [2] it was 90%; in series [4], “Not Active”; in series [6] it was “Active”. The molecule further had a K in series [3] of 84.606 ×10⁶ /M. For the same molecule, the KSV in series [3] was determined as 217.3 ×10³ /M; in series [5] it was 113 ×10³ /M. Further, the Kq is listed as 21.73 ×10¹² /M/s in series [3] and 11.3 ×10¹² /M/s in series [5].
In the case of `CCCCCCCCCCCCCC(=O)CC(O)S(=O)(=O)[O-].[Na+]` (stereo not given) [TETRADECANOYL ACETAL SODIUM SULFITE], the Activity result in series [1] is “Dose-dependent effect”; in series [2] it was 90%; in series [4], “Not Active”; in series [6] it was “Active”. In series [3], the K turned out to be 1360.5 ×10⁶ /M. Besides, the KSV in series [3] is 121.7 ×10³ /M; in series [5] it was 93.2 ×10³ /M. The Kq in series [3] is 12.17 ×10¹² /M/s; in series [5], 9.32 ×10¹² /M/s.
